Measurements from PMC7337247 (Critical care medicine, 2020).
“Also recorded” adds a separate entry of the source. Like-named read-outs stand apart in the source and are kept apart here.

Assays:
human PMN [1] = assay: PMN phagocytosis of pHrodo-labeled E. coli; assay type: cell-based; details: 10 μg/mL Cytochalasin D, E. coli 20:1, 30 min 37°C
human PMN [2] = details: ref [7]; cited from earlier work
human FPR1 = biological target: T1, human FPR1 (Homo sapiens, UniProt P21462); details: cited from earlier work
T1 sequence (P21462 1-350): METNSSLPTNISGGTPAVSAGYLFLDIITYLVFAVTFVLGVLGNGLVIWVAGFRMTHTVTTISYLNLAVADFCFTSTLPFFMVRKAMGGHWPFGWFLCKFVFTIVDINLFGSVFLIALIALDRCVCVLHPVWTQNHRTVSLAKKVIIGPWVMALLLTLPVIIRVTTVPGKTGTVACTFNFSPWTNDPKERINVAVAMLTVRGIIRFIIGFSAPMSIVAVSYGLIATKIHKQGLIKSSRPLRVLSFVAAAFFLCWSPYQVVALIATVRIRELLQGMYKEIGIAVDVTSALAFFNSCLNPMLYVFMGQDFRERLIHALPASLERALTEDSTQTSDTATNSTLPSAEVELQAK

BLT1 [3] = assay: Surface expression of BLT1 by flow cytometry; assay type: cell-based, human; details: 100 nM ND6; with or without 1 μM POL7200 pretreatment; 3 separate experiments
CXCR2 [4] = assay: Surface expression of CXCR2 by flow cytometry; assay type: cell-based, human; details: 100 nM ND6; with or without 1 μM POL7200 pretreatment
BLT1 [5] = assay: fMLF-induced heterologous desensitization: LTB4-induced Ca2+ depletion; assay type: cell-based, human; details: fMLF 10 nM or 100 nM; 100 nM LTB4
Fpr1-KO bone marrow PMN = assay: fMLF desensitization of migration to KC, Fpr1-KO mouse BM-PMN; assay type: cell-based; details: fMLF 100 nM or 1 μM for 45 min; KC 100 ng/mL; 60 min
Fpr2-KO bone marrow PMN = assay: fMLF desensitization of migration to KC, Fpr2-KO mouse BM-PMN; assay type: cell-based; details: fMLF 100 nM or 1 μM for 45 min; KC 100 ng/mL; 60 min
[6] = test system: wild type bone marrow PMN; assay: fMLF desensitization of migration to KC, wild type mouse BM-PMN; assay type: cell-based; details: fMLF 100 nM or 1 μM for 45 min; KC 100 ng/mL; 60 min
CXCR2 [7] = assay: fMLF-induced heterologous desensitization: CXCL1-induced Ca2+ depletion; assay type: cell-based, human; details: pre-treatment with fMLF; 5 nM CXCL1

Compound: C=C1[C@@H](C)[C@H]2[C@H](Cc3ccccc3)NC(=O)[C@]23[C@H](OC(C)=O)/C=C/[C@@](C)(O)C(=O)[C@@H](C)C/C=C/[C@H]3[C@@H]1O [Cytochalasin D]
- effect on phagocytosis, positive control (human PMN [1]): expected suppression of phagocytosis
- effect on phagocytosis, positive control (human PMN [1]; listed as cytochalasin D): inhibited PMN phagocytosis

Compound: fMMYALF [ND6]
- potency as inducer of PMN Ca2+ release/chemotaxis (human PMN [2]): potent inducer of human PMN Ca^2+ release and chemotaxis; also recorded: even more potent than fMLF; also recorded: most potent human mtFP
- receptor through which it acts (human FPR1; 100 nM, ref [7]): acts exclusively at FPR1
- effect on BLT1 surface expression (BLT1 [3]): significantly reduces expression of BLT1
- effect on CXCR2 surface expression (CXCR2 [4]): significantly reduces expression of CXCR2; also recorded: internalized and decreased the surface expression of CXCR2 and BLT1

Compound: N-formyl-methionyl-leucyl phenylalanine [fMLF]
- suppression of LTB4-induced Ca2+ response by fMLF pre-treatment (BLT1 [5]): markedly inhibits Ca^2+ flux response to LTB4; also recorded: significantly reduced calcium depletion
- receptor through which it acts (human FPR1; nanomolar concentrations, ref [17]): acts exclusively through high-affinity human FPR1 receptors
- effect of fMLF pre-exposure on migration toward KC, Fpr1-KO (Fpr1-KO bone marrow PMN): PMN migration to KC persisted; also recorded: protected from chemokine desensitization
- effect of fMLF pre-exposure on migration toward KC, Fpr2-KO (Fpr2-KO bone marrow PMN): inhibited migration toward the CXC-chemokine KC; also recorded: desensitized to KC by prior fMLF exposure
- effect of fMLF pre-exposure on migration toward KC, wild type [6]: inhibited migration toward the CXC-chemokine KC; also recorded: desensitized to KC by prior fMLF exposure
- suppression of CXCL1-induced Ca2+ response by fMLF pre-treatment (CXCR2 [7]): strongly inhibits that response; also recorded: significantly reduced calcium depletion
